Assay results from patent EP2242752B1, “[…] IMIDAZOLES AS HEPATITIS C VIRUS INHIBITORS” (Bristol-Myers Squibb Company, priority 2008, dated 2009).

Test system: HCV 1b genotype
Test: HCV Replicon assay (HCV 16-377-neo replicon cells)
Format: cell-based
Details: Hepatitis C virus; HCV 1b genotype replicon cells; read-out: EC50 ranges against HCV 1b
Procedure: An HCV Replion assay was utilized in the present disclosure, and was prepared, conducted and validated as described in commonly owned PCT/US2006/022197 and in O'Boyle et. al. Antimicrob Agents Chemother. 2005 Apr;49(4): 1346-53.
HCV 16-377-neo replicon cells were used to test the currently described compound series as well as cells resistant to compound A due to a Y2065H mutation in NS5A (described in application PCT/US2006/022197). The compounds tested were determined to have more than 10-fold less inhibitory activity on cells resistant to compound A than wild-type cells indicating a related mechanism of action between the two compound series. Thus, the compounds of the present disclosure can be effective to inhibit the function of the HCV NS5A protein and are understood to be as effective in combinations as previously described in application PCT/US2006/022197 and commonly owned WO/O4014852. Further, the compounds of the present disclosure can be effective against the HCV 1b genotype. It should also be understood that the compounds of the present disclosure can inhibit multiple genotypes of HCV. […] In one embodiment compounds of the present disclosure are active against the 1a, 1b, 2a, 2b, 3a, 4a, and 5a genotypes.

Row | Compound | EC50 [nM]
1 | COC(=O)NCC(=O)N1[C@@H]2C[C@@H]2C[C@H]1c1ncc(-c2ccc(-c3ccc(-c4cnc([C@@H]5C[C@H]6C[C@H]6N5C(=O)CNC(=O)OC)[nH]4)cc3)cc2)[nH]1 (mixture of isomers) [Example M134, methyl (2-((1R,3S,SR)-3-(4-(4'-(2-((1R,3S,SR)-2-(((methoxycarbonyl)amino)acetyl)-2-azabicyclo[3.1.0]hex-3-yl)-1H-imidazol-4-yl)-4-biphenylyl)-1H-imidazol-2-yl)-2-azabicyclo[3.1.0]hex-2-yl)-2-oxoethyl) carbamate] | 1 to 99
2 | COC(=O)N[C@@H](C(=O)N1[C@@H]2C[C@H]2C[C@H]1c1nc(-c2ccc(-c3ccc(-c4c[nH]c([C@@H]5C[C@@H]6C[C@H]6N5C(=O)[C@H](NC(=O)OC)c5ccccc5)n4)cc3)cc2)c[nH]1)c1ccccc1 (mixture of isomers) [Example M137, dimethyl (4,4'-biphenyldiylbis(1H-imidazole-4,2-diyl(1R,3S,SR)-2-azabicyclo[3.1.0]hexane-3,2-diyl((1R)-2-oxo-1-phenyl-2,1-ethanediyl)))biscarbamate] | 0.001 to 0.999
3 | COC(=O)N[C@H](C(=O)N1[C@@H]2C[C@@H]2C[C@H]1c1nc(-c2ccc(-c3ccc(-c4c[nH]c([C@@H]5CC6C[C@H]6N5C(C)=O)n4)cc3)cc2)c[nH]1)C(C)C (mixture of isomers) [Example M138, methyl ((1S)-1-(((1R,3S,5R)-3-(4-(4'-(2-((1R,3S,SR)-2-acetyl-2-azabicyclo[3.1.0]hex-3yl)-1Himidazol-4yl)-4-biphenylyl)-1Himidazol-2-yl)-2-azabicyclo[3.1.0]hex-2-yl)carbonyl)-2-methylpropyl)carbamate] | 0.001 to 0.999
4 | CC(=O)N[C@@H](C(=O)N1[C@@H]2CC2C[C@H]1c1nc(-c2ccc(-c3ccc(-c4c[nH]c([C@@H]5C[C@H]6C[C@H]6N5C(=O)[C@H](NC(C)=O)C(C)C)n4)cc3)cc2)c[nH]1)C(C)C (mixture of isomers) [Example M143, N-((1R)-1-(((1R,3S,5R)-3-(4-(4'-(2-((1R,3S,SR)-2-((2R)-2-acetamido-3-methylbutanoyl)-2-azabicyclo[3.1.0]hex-3-yl)-1H-imidazol-4-yl)-4-biphenylyl)-1H-imidazol-2-yl)-2-azabicyclo[3.1.0]hex-2-yl)carbonyl)-2-methylpropyl)acetamide] | 1 to 99
5 | Cc1[nH]c([C@@H]2CCCN2C(=O)[C@@H](c2ccccc2)N(C)C)nc1-c1ccc(-c2ccc(-c3c[nH]c([C@@H]4CCCN4C(=O)[C@@H](c4ccccc4)N(C)C)n3)cc2)cc1 [Example E5, (1R)-2-((2S)-2-(4-(4'-(2-((2S)-1-((2R)-2-(dimethylamino)-2-phenylacetyl)-2-pyrrolidinyl)-1H-imidazol-4-yl)-4-biphenylyl)-5-methyl-1 H-imidazol-2-yl)-1-pyrrolidinyl)-N,N-dimethyl-2-oxo-1-phenylethanamine] | 0.001 to 0.999
6 | CCN(CC)[C@@H](C(=O)N1CCC[C@H]1c1nc(-c2ccc(-c3ccc(-c4nc([C@@H]5CCCN5C(=O)[C@@H](c5ccccc5)N(CC)CC)[nH]c4C)cc3)cc2)c[nH]1)c1ccccc1 [Example E5a, (1R)-2-((2S)-2-(4-(4'-(2-((2S)-1-((2R)-2-(diethylamino)-2-phenylacetyl)-2-pyrrolidinyl)-1H-imidazol-4-yl)-4-biphenylyl)-5-methyl-1H-imidazol-2-yl)-1-pyrrolidinyl)-N,N-diethyl-2-oxo-1-phenylethanamine] | 0.001 to 0.999
7 | Cc1nc([C@@H]2CCCN2C(=O)[C@@H](c2ccccc2)N2CCCCC2)[nH]c1-c1ccc(-c2ccc(-c3c[nH]c([C@@H]4CCCN4C(=O)[C@@H](c4ccccc4)N4CCCCC4)n3)cc2)cc1 [Example E5b, 1-((1R)-2-((2S)-2-(4-(4'-(4-methyl-2-((2S)-1-((2R)-2-phenyl-2-(1-piperidinyl)acetyl)-2-pyrrolidinyl)-1H-imidazol-5-yl)-4-biphenylyl)-1H-imidazol-2-yl)-1-pyrrolidinyl)-2-oxo-1-phenylethyl)piperidine] | 0.001 to 0.999
